Tests used:
[1] = molecular target: cIAP-1 BIR-3 (Homo sapiens, UniProt Q13490); experiment: Fluorescence polarization binding affinity to cIAP-1 BIR-3 (competition with AbuRPF-K(5-Fam)-NH2); details: 5 nM labeled peptide, 40 nM BIR3, 15 min at RT, pH 7.5; reported as ranges; read-out: KD (c-IAP-1 BIR3)
Experimental: (§1) The binding affinities of the compounds are reported as a KD value (μM). Briefly, various concentrations of test peptides were mixed with 5 nM of the fluorescently labeled peptide (i.e., a mutated N-terminal Smac peptide—AbuRPF-K(5-Fam)-NH2) and 40 nM of the respective IAP BIR3 for 15 min at RT in […] of 0.1M Potassium Phosphate buffer, pH 7.5 containing […] bovine g-globulin. Following incubation, the polarization values (mP) were measured on a Victor2V (available from PerkinElmer Life Sciences) using a 485 nm excitation filter and a 520 nm emission filter. The reported KD values are supplied as ranges (A=<0.1 μM, B=0.1 μM to 1 μM, C>1 μM to 10 μM, D=>10 μM).

[2] = molecular target: T1, XIAP BIR-3 (Homo sapiens, UniProt P98170); experiment: Fluorescence polarization binding affinity to XIAP BIR-3 (competition with AbuRPF-K(5-Fam)-NH2); details: 5 nM labeled peptide, 40 nM BIR3, 15 min at RT, pH 7.5; reported as ranges
T1 construct: 40 nM of the respective IAP BIR3
T1 sequence (P98170 241-356 limits assumed): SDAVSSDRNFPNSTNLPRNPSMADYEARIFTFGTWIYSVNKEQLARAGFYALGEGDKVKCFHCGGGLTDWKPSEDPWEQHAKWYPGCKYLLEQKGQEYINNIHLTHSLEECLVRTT
Experimental: as §1

[3] = system: SK-OV-3 cells; experiment: Growth inhibition of ovarian cancer cell line SK-OV-3 (MTT assay, cell survival); format: cell-based; details: Homo sapiens, drug concentration that results in 50% cell survival, 72 hrs incubation, reported as ranges
Experimental: Compounds of the invention also were tested for their ability to inhibit the growth of an ovarian cancer cell line, SK-OV-3. A known assay previously used for measuring cell growth (as described in Hansen, M. B., Nielsen, S. E., and Berg, K. (1989) J. Immunol. Methods 119, 203-210 and incorporated herein by reference in its entirety) was used. Briefly, SK-OV-3 cells are seeded in 96-well plates in McCoy's medium containing 10% fetal bovine serum albumin (5,000 per well) and incubated overnight at 37° C. The next day, test compounds are added at various concentrations (0.003-10 μM) and the plates are incubated at 37° C. for an additional 72 hrs. This incubation time was considered to be optimal for measuring inhibitory effects of the different compounds tested. 50 microliters of 5 mg/mL MTT reagent is added to each well and the plates are incubated at 37° C. for another three (3) hours. At the end of the three (3) hour incubation period, 50 microliters of DMSO is added to each well to dissolve cells and the optical density (OD) of the wells is measured with a microplate reader (Victor^2 1420, Wallac, Finland) at 535 nm. Cell survival (CS) was calculated using the following equation: CS=(OD treated well/mean OD control wells)×100%.
The CC50 (reported in the following tables), is defined as the drug concentration that results in 50% cell survival (CS), and is derived by calculating the point where the dose-response curve crosses the 50% CS point using GraphPad Prism. The reported CC50 values are supplied as ranges (A=<0.1 μM, B=0.1 μM to 1 μM, C=>1 μM to 10 μM, D=>10 μM).

Chain of cIAP-1 BIR-3 (Q13490 266-352 limits assumed): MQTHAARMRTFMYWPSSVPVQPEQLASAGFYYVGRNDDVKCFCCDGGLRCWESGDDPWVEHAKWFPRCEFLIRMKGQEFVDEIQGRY

Row | Kd [1] | Kd [2] | Compound | CC50 [3]
1 | < 100 nM | < 100 nM | CN[C@@H](C)C(=O)N[C@@H](CO)C(=O)N1CC[C@@H]2[C@H]1[C@@H](c1c[nH]c3cc(F)ccc13)CN2C(C)=O [Example 63, N-{2-[4-Acetyl-6-(6-fluoro-1H-indol-3-yl)-hexahydro-pyrrolo[3,2-b]pyrrol-1-yl]-1-hydroxymethyl-2-oxo-ethyl}-2-methylamino-propionamide] | 1000 to 10000 nM
2 | < 100 nM | < 100 nM | CN[C@@H](C)C(=O)N[C@H](C(=O)N1CC[C@@H]2[C@H]1[C@@H](c1c[nH]c3cc(F)ccc13)CN2c1ncccn1)C(C)C [Example 77, N-{1-[6-(6-Fluoro-1H-indol-3-yl)-4-pyrimidin-2-yl-hexahydro-pyrrolo[3,2-b]pyrrole-1-carbonyl]-2-methyl-propyl}-2-methylamino-propionamide] | < 100 nM
3 | < 100 nM | 100 to 1000 nM | CCN1C[C@H](c2c[nH]c3cc(F)ccc23)[C@@H]2[C@H]1CCN2C(=O)[C@@H](NC(=O)[C@H](C)NC)C1CCCCC1 [Example 18, N-{1-Cyclohexyl-2-[4-ethyl-6-(6-fluoro-1H-indol-3-yl)-hexahydro-pyrrolo[3,2-b]pyrrol-1-yl]-2-oxo-ethyl}-2-methylamino-propionamide] | 100 to 1000 nM
4 | < 100 nM | 100 to 1000 nM | CN[C@@H](C)C(=O)N[C@H](C(=O)N1CC[C@@H]2[C@H]1[C@@H](c1c[nH]c3cc(F)ccc13)CN2Cc1ccccc1)C(C)C [Example 105] | < 100 nM
5 | < 100 nM | 100 to 1000 nM | CN[C@@H](C)C(=O)N[C@H](C(=O)N1CC[C@@H]2[C@H]1[C@@H](c1c[nH]c3cc(F)ccc13)CN2C1CCCC1)C1CCCCC1 [Example 9, N-{1-Cyclohexyl-2-[4-cyclopentyl-6-(6-fluoro-1H-indol-3-yl)-hexahydro-pyrrolo[3,2-b]pyrrol-1-yl]-2-oxo-ethyl}-2-methylamino-propionamide] | < 100 nM
6 | < 100 nM | < 100 nM | CN[C@@H](C)C(=O)N[C@H](C(=O)N1CC[C@@H]2[C@H]1[C@@H](c1c[nH]c3cc(F)ccc13)CN2C(=O)C1CC1)C1CCCCC1 [Example 40, N-{1-Cyclohexyl-2-[4-cyclopropanecarbonyl-6-(6-fluoro-1H-indol-3-yl)-hexahydro-pyrrolo[3,2-b]pyrrol-1-yl]-2-oxo-ethyl}-2-methylamino-propionamide] | < 100 nM
7 | 1000 to 10000 nM | > 10000 nM | CN[C@@H](C)C(=O)N[C@@H](COC)C(=O)N1CC[C@@H]2[C@H]1[C@H](c1c[nH]c3cc(F)ccc13)CN2S(C)(=O)=O [Example 53, N-{2-[6-(6-Fluoro-1H-indol-3-yl)-4-methanesulfonyl-hexahydro-pyrrolo[3,2-b]pyrrol-1-yl]-1-methoxymethyl-2-oxo-ethyl}-2-methylamino-propionamide] | > 10000 nM
8 | 1000 to 10000 nM | > 10000 nM | CN[C@@H](C)C(=O)N[C@H](C(=O)N1CC[C@H]2NC[C@@H](c3c[nH]c4cc(F)ccc34)[C@H]21)C1CCCCC1 [Example 87] | > 10000 nM
9 | 1000 to 10000 nM | > 10000 nM | CN[C@@H](C)C(=O)N[C@@H](CO)C(=O)N1CC[C@@H]2[C@H]1[C@H](c1c[nH]c3cc(F)ccc13)CN2S(C)(=O)=O [Example 51, N-{2-[6-(6-Fluoro-1H-indol-3-yl)-4-methanesulfonyl-hexahydro-pyrrolo[3,2-b]pyrrol-1-yl]-1-hydroxymethyl-2-oxo-ethyl}-2-methylamino-propionamide] | > 10000 nM
10 | < 100 nM | < 100 nM | CN[C@@H](C)C(=O)N[C@H](C(=O)N1CC[C@@H]2[C@H]1[C@@H](c1c[nH]c3cc(F)ccc13)CN2Cc1nccn1C)C1CCCCC1 [Example 27, N-{1-Cyclohexyl-2-[6-(6-fluoro-1H-indol-3-yl)-4-(1-methyl-1H-imidazol-2-ylmethyl)-hexahydro-pyrrolo[3,2-b]pyrrol-1-yl]-2-oxo-ethyl}-2-methylamino-propionamide] | 1000 to 10000 nM
11 | 100 to 1000 nM | 1000 to 10000 nM | CN[C@@H](C)C(=O)N[C@H](C(=O)N1CC[C@H]2NCC[C@H]21)C1CCCCC1 [Example 109, N-[1-Cyclohexyl-2-(hexahydro-pyrrolo[3,2-b]pyrrol-1-yl)-2-oxo-ethyl]-2-methylamino-propionamide] | > 10000 nM
12 | < 100 nM | < 100 nM | C[C@H](N)C(=O)N[C@H](C(=O)N1CC[C@H]2NC[C@H](c3c[nH]c4cc(F)ccc34)[C@H]21)C1CCCCC1 [Example 88] | > 10000 nM
13 | < 100 nM | < 100 nM | CN[C@@H](C)C(=O)N[C@H](C(=O)N1CC[C@@H]2[C@H]1[C@@H](c1c[nH]c3cc(F)ccc13)CN2c1ncccn1)C1CCCCC1 [Example 75, N-{1-Cyclohexyl-2-[6-(6-fluoro-1H-indol-3-yl)-4-pyrimidin-2-yl-hexahydro-pyrrolo[3,2-b]pyrrol-1-yl]-2-oxo-ethyl}-2-methylamino-propionamide] | < 100 nM
14 | < 100 nM | 100 to 1000 nM | CN[C@@H](C)C(=O)N[C@H](C(=O)N1CC[C@@H]2[C@H]1[C@@H](c1c[nH]c3cc(F)ccc13)CN2C1CCN(C)CC1)C1CCCCC1 [Example 22, N-{1-Cyclohexyl-2-[6-(6-fluoro-1H-indol-3-yl)-4-(1-methyl-piperidin-4-yl)-hexahydro-pyrrolo[3,2-b]pyrrol-1-yl]-2-oxo-ethyl}-2-methylamino-propionamide] | 100 to 1000 nM
15 | < 100 nM | 100 to 1000 nM | CN[C@@H](C)C(=O)N[C@H](C(=O)N1CC[C@H]2NC[C@H](c3c[nH]c4cc(F)ccc34)[C@H]21)C(C)(C)C [Example 31, N-{1-[6-(6-Fluoro-1H-indol-3-yl)-hexahydro-pyrrolo[3,2-b]pyrrole-1-carbonyl]-2,2-dimethyl-propyl}-2-methylamino-propionamide] | < 100 nM
16 | < 100 nM | < 100 nM | CN[C@@H](C)C(=O)N[C@H](C(=O)N1CC[C@@H]2[C@H]1[C@@H](c1c[nH]c3ccc(F)cc13)CN2C(C)=O)C(C)C [Example 68, N-{1-[4-Acetyl-6-(5-fluoro-1H-indol-3-yl)-hexahydro-pyrrolo[3,2-b]pyrrole-1-carbonyl]-2-methyl-propyl}-2-methylamino-propionamide] | < 100 nM
17 | 100 to 1000 nM | 1000 to 10000 nM | CN[C@@H](C)C(=O)N[C@H](C(=O)N1CC[C@@H]2[C@H]1[C@H](c1c[nH]c3cc(F)ccc13)CN2S(C)(=O)=O)C1CCCCC1 [Example 44] | 1000 to 10000 nM
18 | < 100 nM | < 100 nM | CN[C@@H](C)C(=O)N[C@@H](CO)C(=O)N1CC[C@@H]2[C@H]1[C@@H](c1c[nH]c3ccc(F)cc13)CN2C(C)=O [Example 73, N-{2-[4-Acetyl-6-(5-fluoro-1H-indol-3-yl)-hexahydro-pyrrolo[3,2-b]pyrrol-1-yl]-1-hydroxymethyl-2-oxo-ethyl}-2-methylamino-propionamide] | 1000 to 10000 nM
19 | < 100 nM | < 100 nM | CCOC(=O)CN1C[C@H](c2c[nH]c3cc(F)ccc23)[C@@H]2[C@H]1CCN2C(=O)[C@@H](NC(=O)[C@H](C)NC)C1CCCCC1 [Example 41, [4-[2-Cyclohexyl-2-(2-methylamino-propionylamino)-acetyl]-3-(6-fluoro-1H-indol-3-yl)-hexahydro-pyrrolo[3,2-b]pyrrol-1-yl]-acetic acid ethyl ester] | 100 to 1000 nM
20 | < 100 nM | < 100 nM | CN[C@@H](C)C(=O)N[C@H](C(=O)N1CC[C@@H]2[C@H]1[C@@H](c1c[nH]c3cc(F)ccc13)CN2C(=O)c1ccccc1)C1CCCCC1 [Example 38, N-{2-[4-Benzoyl-6-(6-fluoro-1H-indol-3-yl)-hexahydro-pyrrolo[3,2-b]pyrrol-1-yl]-1-cyclohexyl-2-oxo-ethyl}-2-methylamino-propionamide] | < 100 nM

From patent US8399683B2 (TetraLogic Pharmaceuticals, priority 2008, dated 2013)
